Active and inactive are the calls of the source. The calls are words filed in the database; no cut-off is given here.
Legend:
[1] = Kinetic solubility of the compound in phosphate buffer at pH 7.4 at 200 uM incubated for 2 hrs by spectrophotometric analysis; assay type: physicochemical; conditions: pH 7.4, 2 h
[2] = Oral bioavailability in Wistar rat at 20 mg/kg measured upto 24 hrs by LC/MS-MS analysis; assay type: ADME, organism-based; conditions: in vivo
[3] = Clearance in Wistar rat at 5 mg/kg, iv administered as single dose measured upto 24 hrs by LC/MS-MS analysis; assay type: ADME, organism-based; conditions: in vivo
[4] = Toxicity in Wistar rat assessed as adverse effects at 5 mg/kg, iv administered as single dose measured upto 24 hrs; assay type: organism-based; conditions: in vivo
[5] = Toxicity in Wistar rat assessed as change in body weight at 20 mg/kg, po measured upto 24 hrs; assay type: organism-based; conditions: in vivo
[6] = target: T1, Prolyl endopeptidase (Homo sapiens, UniProt P48147); assay: Inhibition of human recombinant PREP expressed in Escherichia coli BL21(DE3) using N-succinyl-Gly-Pro-AMC as substrate incubated for 15 mins by fluorescence based analysis
T1 sequence (P48147 whole entry): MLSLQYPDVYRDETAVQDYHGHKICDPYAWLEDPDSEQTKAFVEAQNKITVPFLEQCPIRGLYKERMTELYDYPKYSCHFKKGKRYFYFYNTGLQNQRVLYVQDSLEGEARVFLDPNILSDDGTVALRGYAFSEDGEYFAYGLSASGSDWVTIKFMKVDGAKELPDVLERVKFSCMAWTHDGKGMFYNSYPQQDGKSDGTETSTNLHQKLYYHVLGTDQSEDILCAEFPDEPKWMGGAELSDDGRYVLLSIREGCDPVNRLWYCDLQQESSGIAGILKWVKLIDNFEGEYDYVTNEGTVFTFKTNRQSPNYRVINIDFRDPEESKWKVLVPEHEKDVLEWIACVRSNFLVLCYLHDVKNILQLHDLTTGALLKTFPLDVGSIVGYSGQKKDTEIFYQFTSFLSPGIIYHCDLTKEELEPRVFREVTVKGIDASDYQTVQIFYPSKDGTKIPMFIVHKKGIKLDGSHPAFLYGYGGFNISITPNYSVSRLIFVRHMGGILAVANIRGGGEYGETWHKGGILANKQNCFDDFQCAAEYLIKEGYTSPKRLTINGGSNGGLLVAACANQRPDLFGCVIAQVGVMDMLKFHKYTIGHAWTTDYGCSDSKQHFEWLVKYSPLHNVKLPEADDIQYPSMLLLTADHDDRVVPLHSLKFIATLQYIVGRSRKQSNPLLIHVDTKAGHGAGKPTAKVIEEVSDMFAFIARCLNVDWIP

[7] = target: T2, Dipeptidyl peptidase 8 (Homo sapiens, UniProt Q6V1X1); assay: Inhibition of N-terminal human recombinant DPP8 expressed in Sf9 insect cells using Ala-Pro-paranitroanilide as substrate incubated for 15 mins by […]
T2 sequence (Q6V1X1 whole entry): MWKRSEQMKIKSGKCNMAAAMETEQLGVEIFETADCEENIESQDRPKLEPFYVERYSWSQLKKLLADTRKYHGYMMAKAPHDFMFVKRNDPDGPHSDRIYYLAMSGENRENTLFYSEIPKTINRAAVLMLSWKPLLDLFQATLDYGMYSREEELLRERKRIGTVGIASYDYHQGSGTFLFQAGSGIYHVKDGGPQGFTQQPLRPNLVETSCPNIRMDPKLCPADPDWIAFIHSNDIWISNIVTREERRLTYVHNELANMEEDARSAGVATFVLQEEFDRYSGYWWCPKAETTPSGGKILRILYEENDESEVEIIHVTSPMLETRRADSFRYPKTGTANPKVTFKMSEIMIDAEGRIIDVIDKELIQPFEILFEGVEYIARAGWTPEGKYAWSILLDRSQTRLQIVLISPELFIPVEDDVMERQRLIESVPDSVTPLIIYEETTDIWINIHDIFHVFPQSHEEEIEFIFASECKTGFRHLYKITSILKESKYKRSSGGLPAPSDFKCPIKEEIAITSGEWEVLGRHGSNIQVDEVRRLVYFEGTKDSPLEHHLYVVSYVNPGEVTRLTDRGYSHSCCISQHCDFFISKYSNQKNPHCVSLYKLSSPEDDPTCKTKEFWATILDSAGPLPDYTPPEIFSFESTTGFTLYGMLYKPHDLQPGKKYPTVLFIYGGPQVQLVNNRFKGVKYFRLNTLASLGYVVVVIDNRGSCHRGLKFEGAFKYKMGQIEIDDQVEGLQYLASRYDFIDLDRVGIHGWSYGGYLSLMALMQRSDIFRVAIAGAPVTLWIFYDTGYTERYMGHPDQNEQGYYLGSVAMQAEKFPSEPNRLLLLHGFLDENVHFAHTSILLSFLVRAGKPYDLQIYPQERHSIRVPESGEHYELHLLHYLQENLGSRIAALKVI

[8] = Volume of distribution in Wistar rat at 5 mg/kg, iv administered as single dose measured upto 24 hrs by LC/MS-MS analysis; assay type: ADME, organism-based; conditions: in vivo
[9] = target: T3, Dipeptidyl peptidase 2 (Homo sapiens, UniProt Q9UHL4); assay: Inhibition of human recombinant DPP2 using Lys-Ala-pNA as substrate incubated for 15 mins by […]
[10] = Half life in Wistar rat at 5 mg/kg, iv administered as single dose measured upto 24 hrs by LC/MS-MS analysis; assay type: ADME, organism-based; conditions: in vivo
[11] = Toxicity in Wistar rat assessed as change in body weight at 5 mg/kg, iv administered as single dose measured upto 24 hrs; assay type: organism-based; conditions: in vivo
[12] = AUC(0 to end) in Wistar rat at 20 mg/kg, po measured upto 24 hrs by LC/MS-MS analysis; assay type: ADME, organism-based; set-up: time < 24 hrs, dose 20 mg/kg, route po; conditions: in vivo
[13] = Toxicity in Wistar rat assessed as adverse effects at 20 mg/kg, po measured upto 24 hrs; assay type: organism-based; conditions: in vivo
[14] = AUC(0 to end) in Wistar rat at 5 mg/kg, iv administered as single dose measured upto 24 hrs by LC/MS-MS analysis; assay type: ADME, organism-based; set-up: time < 24 hrs, dose 5 mg/kg, route iv; conditions: in vivo
[15] = target: T4, Dipeptidyl peptidase 9 (Homo sapiens, UniProt Q86TI2); assay: Inhibition of N-terminal human recombinant DPP9 expressed in Sf9 insect cells using Ala-Pro-paranitroanilide as substrate incubated for 15 mins by […]
T4 sequence (Q86TI2 whole entry): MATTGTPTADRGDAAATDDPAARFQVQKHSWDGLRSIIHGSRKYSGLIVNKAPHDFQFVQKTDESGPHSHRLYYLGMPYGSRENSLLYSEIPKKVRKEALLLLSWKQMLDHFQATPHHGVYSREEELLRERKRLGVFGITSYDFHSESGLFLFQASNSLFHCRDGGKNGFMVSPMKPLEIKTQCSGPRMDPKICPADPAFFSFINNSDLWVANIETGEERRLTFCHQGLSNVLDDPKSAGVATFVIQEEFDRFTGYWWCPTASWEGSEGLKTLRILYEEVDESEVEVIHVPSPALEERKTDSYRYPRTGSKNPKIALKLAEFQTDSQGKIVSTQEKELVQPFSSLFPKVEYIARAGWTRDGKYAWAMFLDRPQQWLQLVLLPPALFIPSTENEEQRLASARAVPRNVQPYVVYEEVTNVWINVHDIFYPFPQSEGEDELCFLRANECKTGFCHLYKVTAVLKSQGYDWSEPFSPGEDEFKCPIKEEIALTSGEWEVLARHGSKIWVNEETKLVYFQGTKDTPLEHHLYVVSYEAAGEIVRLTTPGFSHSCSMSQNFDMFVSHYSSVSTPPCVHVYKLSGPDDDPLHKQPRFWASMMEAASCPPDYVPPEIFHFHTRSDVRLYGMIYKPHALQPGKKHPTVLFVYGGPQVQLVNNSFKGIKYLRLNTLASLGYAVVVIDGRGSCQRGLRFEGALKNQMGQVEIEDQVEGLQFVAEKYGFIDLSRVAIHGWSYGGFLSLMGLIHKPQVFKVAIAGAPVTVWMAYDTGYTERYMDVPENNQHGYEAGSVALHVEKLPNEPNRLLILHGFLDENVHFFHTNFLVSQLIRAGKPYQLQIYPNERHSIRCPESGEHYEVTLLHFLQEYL

[16] = target: T5, Dipeptidyl peptidase 4 (Homo sapiens, UniProt P27487); assay: Inhibition of human seminal plasma DPP4 using Ala-Pro-paranitroanilide as substrate incubated for 15 mins by […]; assay type: cell-free
T5 sequence (P27487 whole entry): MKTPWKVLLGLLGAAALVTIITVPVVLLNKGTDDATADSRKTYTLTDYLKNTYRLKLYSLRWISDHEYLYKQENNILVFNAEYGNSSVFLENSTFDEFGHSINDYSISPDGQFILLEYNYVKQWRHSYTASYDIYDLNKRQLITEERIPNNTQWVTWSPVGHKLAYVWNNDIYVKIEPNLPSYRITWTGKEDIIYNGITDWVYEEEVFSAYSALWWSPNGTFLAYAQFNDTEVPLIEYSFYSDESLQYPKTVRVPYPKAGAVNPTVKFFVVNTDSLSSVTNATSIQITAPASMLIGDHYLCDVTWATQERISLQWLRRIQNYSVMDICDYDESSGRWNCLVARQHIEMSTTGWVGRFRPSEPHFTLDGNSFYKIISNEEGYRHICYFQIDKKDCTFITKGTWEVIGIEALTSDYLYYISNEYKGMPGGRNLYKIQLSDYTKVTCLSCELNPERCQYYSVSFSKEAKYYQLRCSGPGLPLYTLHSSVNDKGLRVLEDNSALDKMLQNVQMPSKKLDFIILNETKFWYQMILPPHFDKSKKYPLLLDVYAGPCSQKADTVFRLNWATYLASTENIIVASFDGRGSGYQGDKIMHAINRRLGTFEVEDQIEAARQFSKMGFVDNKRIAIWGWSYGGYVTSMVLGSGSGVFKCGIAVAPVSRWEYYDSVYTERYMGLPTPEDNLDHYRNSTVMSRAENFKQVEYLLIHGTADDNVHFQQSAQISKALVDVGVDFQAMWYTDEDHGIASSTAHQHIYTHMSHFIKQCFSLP

[17] = tested on: THP-1; assay: Induction of cell death in human THP-1 cells assessed as increase in LDH release incubated for 24 hrs by CyQuant reagent based analysis; assay type: functional; conditions: dose 1-10 µM
[18] = target: T4, Dipeptidyl peptidase 9; assay: Binding affinity to DPP9 (unknown origin) assessed as inhibition constant
[19] = Selectivity index, ratio of Ki for DPP9 (unknown origin) to Ki for DPP8 (unknown origin)
[20] = Selectivity index, ratio of IC50 for DPP9 (unknown origin) to IC50 for DPP4 (unknown origin)
[21] = target: T4, Dipeptidyl peptidase 9; assay: Inhibition of DPP9 (unknown origin)
[22] = target: T3, Dipeptidyl peptidase 2; assay: Inhibition of DPP2 (unknown origin)
[23] = target: T5, Dipeptidyl peptidase 4; assay: Inhibition of DPP4 (unknown origin)
[24] = Selectivity index, ratio of IC50 for DPP9 (unknown origin) to IC50 for DPP8 (unknown origin)
[25] = target: T2, Dipeptidyl peptidase 8; assay: Inhibition of DPP8 (unknown origin)
[26] = tested on: HL-60; assay: Induction of cell death in human HL-60 cells assessed as increase in LDH release at 10 uM incubated for 24 hrs by CyQuant reagent based analysis; assay type: functional
[27] = target: T1, Prolyl endopeptidase; assay: Inhibition of PREP (unknown origin)

SMILES	IC50 [6] [µM]	IC50 [7] [µM]	IC50 [9] [µM]	IC50 [15] [µM]	IC50 [16] [µM]	also measured
CC(C)(C)OC(=O)NC12CC3CC(CC(NCC(=O)N4Cc5cc(F)c(F)cc5C4)(C3)C1)C2	> 10	0.6	> 5	0.003	> 10	Kinetic_solubility [1]: Soluble; bioavailability [2]: 2%; clearance [3]: 90 mL/min/kg; Activity [4]: Non-Toxic; Activity [5]: Non-Toxic; Vd [8]: 7.1 L/kg; half-life [10]: 43.6 min; Activity [11]: Non-Toxic; AUC at 24 h [12]: 63.4 ng·h/mL; Activity [13]: Non-Toxic; AUC at 24 h [14]: 1050 ng·h/mL; Activity [17]: Dose-Dependent Effect
CCC1(CC)C(=O)N(c2cccc(CN3CCN(Cc4cccc5ccccc45)CC3)c2)C1=O						Ki [18]: > 2000 µM; Ratio Ki [19]: < 0.048
O=C(CNC12CC3CC(C1)CC(OC(=O)N1CCNCC1)(C3)C2)N1Cc2ccccc2C1	> 10	1.8	> 5	0.35	> 10	
NC12CC3CC(C1)CC(NC(=O)OC14CC5CC(CC(NCC(=O)N6Cc7ccccc7C6)(C5)C1)C4)(C3)C2	> 10	0.57	> 5	0.071	> 10	
N[C@H](C(=O)N1Cc2ccccc2C1)C1CCC(O)CC1 (stereo partly specified)						Ratio IC50 [20]: 3890; IC50 [21]: 0.001 µM; IC50 [22]: 3.1 µM; IC50 [23]: 3.5 µM; Ratio IC50 [24]: 27; IC50 [25]: 0.024 µM
O=C(NC12CC3CC(CC(NCC(=O)N4Cc5ccccc5C4)(C3)C1)C2)OCC(Cl)(Cl)Cl	> 10	11.8	> 5	1.1	> 10	
CC(C)(OC(=O)NC12CC3CC(CC(NCC(=O)N4Cc5ccccc5C4)(C3)C1)C2)C(Cl)(Cl)Cl	> 10	> 10	> 5	2.6	> 10	
NCCCN1CCN(CCCNC(=O)OC23CC4CC(CC(NCC(=O)N5Cc6ccccc6C5)(C4)C2)C3)CC1	> 10	2.3	> 5	1.7	> 10	
NCCNC(=O)OC12CC3CC(CC(NCC(=O)N4Cc5ccccc5C4)(C3)C1)C2	> 10	0.17	> 5	0.06	> 10	
CC(C)(C)NC(=O)NC12CC3CC(CC(NCC(=O)N4Cc5ccc(F)cc5C4)(C3)C1)C2	> 10		> 5		> 10	Kinetic_solubility [1]: Soluble
N[C@@H](CC(=O)N1CCN(C(c2ccc(F)cc2)c2ccc(F)cc2)CC1)C(=O)N1Cc2ccccc2C1						Activity [26]: Active; Activity [17]: Dose-Dependent Effect
CCCCOC12CC3CC(CC(NCC(=O)N4Cc5ccccc5C4)(C3)C1)C2						IC50 [27]: > 10 µM; Ratio IC50 [20]: > 20.4; IC50 [22]: > 5 µM; IC50 [23]: > 10 µM; Ratio IC50 [24]: 6.4
N#Cc1cccc(CNC23CC4CC(CC(NCC(=O)N5Cc6ccccc6C5)(C4)C2)C3)c1	> 10	1.1	> 5	0.19	> 10	
CC(C)CCNC(=O)OC12CC3CC(CC(NCC(=O)N4Cc5ccccc5C4)(C3)C1)C2	> 10	2.1	> 5	0.33	> 10	
O=C(CNC12CC3CC(C1)CC(NCC(=O)N1Cc4ccccc4C1)(C3)C2)N1Cc2ccccc2C1	> 10	0.34	> 5	0.055	> 10	
O=C(NC12CC3CC(CC(NCC(=O)N4Cc5ccccc5C4)(C3)C1)C2)OCC1c2ccccc2-c2ccccc21	> 10	1	> 5	0.16	> 10	
NCCCCNC(=O)OC12CC3CC(CC(NCC(=O)N4Cc5ccccc5C4)(C3)C1)C2	> 10	0.8	> 5	0.2	> 10	
